Measurements reported in US11234976B2, “Methods of using pyruvate kinase activators” (Agios Pharmaceuticals, Inc., priority 2015, dated 2022).
Like-named read-outs stand apart in the source and are kept apart here.

Experiments:
Drug exposure in mice = type: in vivo, C57/BL6 mice; details: oral gavage, 1-150 mpk, single dose and multiple dose (13 doses, BID)
Text: Dose levels tested were 1 mpk, 10 mpk, 50 mpk, and 150 mpk. Following the last dose, mice were bled to evaluate drug exposure and pharmacodynamic markers including 2,3-DPG and ATP levels, and PKR activity. […]. […]

[1] = test system: recombinantly expressed PKR mutant proteins; assay: Activation of recombinantly expressed PKR mutant proteins; type: biochemical
[2] = MAD study pharmacokinetics in healthy subjects
PK-R [3] = assay: MAD study pharmacodynamics (blood 2,3-DPG and ATP)
PKR reaction = assay: PKR flux in whole blood from treated mice ([U-13C6]-glucose); type: in vivo, C57BL/6 mice; details: 100 mpk BID, 13 doses, oral gavage; kinetic flux model
Description: Whole blood was incubated with [U-^13C6]-glucose at 37° C. and the metabolite pool sizes and rate of ^13C label incorporation into glycolytic intermediates were assessed. The data were subsequently analyzed using a mathematical kinetic flux model to quantify the overall change in carbon flow through the PKR reaction.

[4] = MAD study safety and tolerability; details: doses between 360 and 700 not explored
Description: (§2) Adverse events (AEs), laboratory parameters, ECGs, and vital signs were monitored.

[5] = in vivo
Description: as §2

[6] = SAD study safety and tolerability; type: in vivo, human
Description: (§1) Key exclusion criteria included glucose 6-phosphate dehydrogenase deficiency, blood donation, blood loss of greater than 500 mL, or transfusion of blood or plasma within three months of screening.

PKD red cells = assay: Ex-vivo treatment of PKD red cells; type: cell-based, human; details: PKD red cells treated ex-vivo
[7] = biological target: cytochrome P450 3A4 (CYP3A4) (Homo sapiens, UniProt P08684); assay: Pre-clinical CYP3A4 induction / metabolism; type: in vitro ADME
PK-R [8] = test system: PK-R
Description: as §1

PKR = PKR (Mus musculus, UniProt P53657)
Text: Dose levels tested were 1 mpk, 10 mpk, 50 mpk, and 150 mpk. Following the last dose, mice were bled to evaluate drug exposure and pharmacodynamic markers including 2,3-DPG and ATP levels, and PKR activity.

[9] = SAD study pharmacokinetics in healthy subjects; type: in vivo, human; details: for half-life: oral
Description: . Key exclusion criteria included glucose 6-phosphate dehydrogenase deficiency, blood donation, blood loss of greater than 500 mL, or transfusion of blood or plasma within three months of screening.

[10] = single oral dose, 1, 10, 50, 150 mpk

PKR, sequence (P53657 whole entry): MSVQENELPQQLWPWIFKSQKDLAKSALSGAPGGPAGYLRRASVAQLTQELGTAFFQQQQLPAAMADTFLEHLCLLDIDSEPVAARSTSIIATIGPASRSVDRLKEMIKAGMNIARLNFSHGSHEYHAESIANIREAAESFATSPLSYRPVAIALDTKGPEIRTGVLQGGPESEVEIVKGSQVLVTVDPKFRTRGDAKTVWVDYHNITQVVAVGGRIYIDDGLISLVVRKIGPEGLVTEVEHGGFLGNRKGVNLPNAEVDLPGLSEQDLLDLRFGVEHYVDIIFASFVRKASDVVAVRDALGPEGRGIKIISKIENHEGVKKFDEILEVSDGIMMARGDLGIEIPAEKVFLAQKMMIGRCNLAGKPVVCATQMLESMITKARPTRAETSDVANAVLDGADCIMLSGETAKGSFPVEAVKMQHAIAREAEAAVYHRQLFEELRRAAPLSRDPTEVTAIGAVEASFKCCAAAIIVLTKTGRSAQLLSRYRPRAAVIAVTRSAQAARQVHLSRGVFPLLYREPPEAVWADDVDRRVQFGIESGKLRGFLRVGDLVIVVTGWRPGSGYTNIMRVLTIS
cytochrome P450 3A4 (CYP3A4), sequence (P08684 whole entry): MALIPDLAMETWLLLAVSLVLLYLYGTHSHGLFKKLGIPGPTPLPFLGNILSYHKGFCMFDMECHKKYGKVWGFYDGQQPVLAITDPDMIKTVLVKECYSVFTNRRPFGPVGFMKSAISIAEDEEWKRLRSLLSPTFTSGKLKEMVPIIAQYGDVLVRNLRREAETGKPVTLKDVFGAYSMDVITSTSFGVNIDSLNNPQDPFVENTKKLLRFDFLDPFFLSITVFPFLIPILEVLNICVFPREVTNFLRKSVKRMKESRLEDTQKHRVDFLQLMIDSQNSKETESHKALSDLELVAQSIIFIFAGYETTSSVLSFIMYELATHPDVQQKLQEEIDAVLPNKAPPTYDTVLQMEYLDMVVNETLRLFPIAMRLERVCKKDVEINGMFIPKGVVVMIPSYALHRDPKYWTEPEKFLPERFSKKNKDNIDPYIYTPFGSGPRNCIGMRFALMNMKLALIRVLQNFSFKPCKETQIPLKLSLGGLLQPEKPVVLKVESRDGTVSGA

SMILES: O=C(c1ccc(NS(=O)(=O)c2cccc3cccnc23)cc1)N1CCN(CC2CC2)CC1 [Compound 1, N-(4-(4-(cyclopropylmethyl)piperazine-1-carbonyl)phenyl)quinoline-8-sulfonamide]
- drug exposure (Drug exposure in mice): dose-proportional increase in exposure
- activity of mutated PK-R enzymes ([1]; pre-clinical studies): increases the activity
- protein stability of PKR mutant proteins ([1]; recombinantly expressed PKR mutants associated with PKD): enhances the protein stability
- plasma exposure ([2]; 15-700 mg q12h, 120 mg q24h): dose dependent
- pharmacokinetic parameter values Day 14 compared with Day 1 ([2]; MAD cohorts 1 and 2 (120 mg BID, 360 mg BID)): lower on Day 14
- effect on ATP levels after first dose (PK-R [3]; 12 hours following the first dose): minimal
- ATP levels in the blood (PK-R [3]; Days 8-14, MAD cohorts 1 and 2): substantial increases
- 2,3-DPG levels (PK-R [3]; after final dose, MAD cohorts 1 and 2): decreases in 2,3-DPG levels
- time ATP levels remained elevated (PK-R [3]; after the last dose, MAD cohorts 1 and 2): ≥ 72 h
- dose at which decrease in 2,3-DPG and increase in ATP plateau (PK-R [3]; in vivo): 360 mg q12h
- time for 2,3-DPG decrease to reach full extent (PK-R [3]; of dosing): ≤ 7 days
- time for ATP increase to reach full extent (PK-R [3]; of dosing): ≤ 10 days
- glycolytic flux through the PKR reaction (PKR reaction): significantly increased
- highest well-tolerated dose [4]: 360 mg q12h
- dose at which gastrointestinal AEs occurred ([5]; both, human, 14 days): 700 mg q12h
- severity of treatment-related AEs ([5]; both, human, 14 days): mild or moderate (only 1 grade 3 event)
- subjects with related headache ([5]; both, human, 14 days): 14%
- subjects with related nausea ([5]; both, human, 14 days): 14%
- subjects with treatment related ≥1 AEs ([5]; both, human, 14 days): 31%
- subjects with ≥1 AE ([5]; both, human, 14 days): 44%
- number of discontinuations [5]: four
- serious AEs, discontinuations due to AEs, dose-limiting toxicities ([6]; SAD and 2 completed MAD cohorts): no serious AEs, discontinuations due to AEs, or dose-limiting toxicities
- maximum tolerated dose ([6]; single oral dose 30-2500 mg): not reached
- 2,3-DPG levels (PKD red cells): reduced 2,3-DPG levels
- ATP levels (PKD red cells): increased ATP levels
- PKR enzyme activity levels (PKD red cells): increased PKR enzyme activity levels
- role of CYP3A4 in metabolism of the compound [7]: major route of the oxidative metabolism
- CYP3A4 induction ([7]; pre-clinical data): moderate inducer
- blood ATP levels (PK-R [8]; after a single dose, SAD study): minimal increases
- time for 2,3-DPG to return to placebo levels (PK-R [8]; after single dose): 72 h
- ATP levels in whole blood (PKR; multiple doses (13 doses, BID), 1, 10, 50, 150 mpk): robustly increased in a dose-dependent manner
- 2,3-DPG levels in whole blood (PKR; [10]): reduction in 2,3-DPG levels
- ATP levels in whole blood (PKR; [10]): no significant changes
- half-life ([9]; both sexes, human, plasma, concentrations measured for 72 hours, read-out: mean apparent terminal half-life (t1/2)): 17.5 to 20.5 h
- half-life ([9]; both sexes, human, plasma, concentrations measured for 120 hours, read-out: mean apparent terminal half-life (t1/2)): 50 to 80 h
- half-life ([9]; both sexes, human, plasma, first 12 hours following dosing, read-out: apparent half-life of rapid distribution or elimination phase): 2 to 4 h
- Tmax ([9]; both sexes, human, plasma, single oral dose, SAD cohorts, read-out: median Tmax): 0.75 to 4 h
- effect of food on exposure ([9]; fed vs fasted, preliminary results): minimal effect
- exposure (mean plasma Cmax, AUC0-12 hr and AUC0-72 hr) ([9]; single doses, SAD cohorts 1-6): increased in a dose-proportional manner
